In ChEMBL document CHEMBL1129941, “AMPA receptor agonists: synthesis, protolytic properties, and pharmacology of 3-isothiazolol bioisosteres of glutamic acid” (J Med Chem, 1997):

Experiments:
[1] = biological target: Glutamate receptor ionotropic, AMPA (Rattus norvegicus, UniProt P19490+P19491+P19492+P19493)
Description: In vitro binding affinity for Ionotropic glutamate receptor AMPA site was determined using [3H]AMPA as radioligand in rat cortex

Rattus norvegicus = organism: Rattus norvegicus; test: tissue or blood
Description: Effective concentration evaluated in electrophysiological rat cortical slice model

Mus musculus = test: In vivo convulsant potency after subcutaneous administration in mice; assay type: functional; details: sc

Row | Compound | IC50 [1] | EC50 (Rattus norvegicus) | ED50 (Mus musculus)
1 | CC(C)(C)c1snc(O)c1CC(N)C(=O)O (configuration not stated) | 0.63 µM | 14 µM | –
2 | Cc1snc(O)c1CC(N)C(=O)O (configuration not stated) | 1.8 µM | 15 µM | 130 µmol/kg
3 | NC(Cc1cc(O)no1)C(=O)O (configuration not stated) | 1.5 µM | 370 µM | –
4 | CC(C)(C)c1onc(O)c1CC(N)C(=O)O (configuration not stated) | – | 34 µM | –
5 | NC(Cc1snc(O)c1Br)C(=O)O (configuration not stated) | 17 µM | 500 µM | –
6 | NC(Cc1cc(O)ns1)C(=O)O (configuration not stated) | 5.8 µM | 370 µM | –
